Experimental data from PubChem BioAssay AID504731 (National Center for Advancing Translational Sciences (NCATS), 2011).

System: mouse liver microsomes, T1/2, LC-MS/MS
Experiment: Allosteric/Competitive Inhibitors of Caspase 1: Metabolic Stability Profiling
Conditions: at 1 µM; hits give high values
Excerpt: The caspases (Cysteine Aspartyl Protease) comprise a related family of 14 dimeric proteases that are critical mediators of apoptosis (programmed cell death) and inflammation. The caspases represent an important class of drug targets for stroke, ischemia, cancer and inflammatory diseases. The goal of this project was to identify compounds that act as selective inhibitors caspase 1. To identify both allosteric and competitive inhibitors of caspase 1, the enzyme was screened using a pro-fluorescent substrate in a qHTS format. […] Mouse liver microsomes are created through broken up endoplasmic reticulum from mouse liver. These liver microsomes contain many drug metabolizing enzymes, such as Cytochome P-450s and flavin-containing monooxygenases. Because metabolism is major way of drug clearance, this is an important result. H Chemical Genomics Center [NCGC] NIH Molecular Libraries Probe Production Centers Network [MLPCN] MLSCN Grant: 1 X01 MH078950-01 PI Name: Dr. James Wells
1uM of compound in incubated in mouse liver microsome; the reference compound is ketanserin. Compounds are incubated at 37 degrees C for different time periods: 0, 5, 15, 30, 45, and 60 minutes. Samples are analyzed with LC-MS/MS.

half-life: 3.43 h
Structure (SMILES): CC(C)(C)[C@H](NC(=O)c1ccc(N)c(Cl)c1)C(=O)N1CCC[C@H]1C(=O)N[C@H](C#N)CC(=O)O
